Measurements taken from US20250115943A1, “SYSTEM AND METHOD FOR ANTIMICROBIAL SUSCEPTIBILITY TESTING” (priority 2023, published 2025).
Values after ≈ are worked out from the molar mass of the structure shown. Where two headings read alike, the source gives them in different places.

How the values were obtained:
S. aureus ATCC 29213 [1] = conditions: CLSI M100-Ed34E; cited from earlier work
E. coli ATCC 25922 [2] = assay: CytoSPAR BLAST antibiotic susceptibility test; assay type: cell-based; conditions: for MIC: Escherichia coli; for S, I, R: susceptible, intermediate, resistant category
Excerpt: (§1) The disclosed technology, which is referred to as the CytoSPAR BLAST (Bacteria Labeling Antibiotic Susceptibility Test) system, is used to quantitatively assess bacterial minimal inhibitory concentration of antibiotics for in vitro susceptibility testing. Used as an aid in diagnosis for clinicians in determining potential treatment options for patients suspected of having a microbial infection, BLAST is intended to determine susceptibility of microorganisms to the listed antibiotics (or other antimicrobials) according to manufacturer's standards. The system is intended for use with clinical isolates from liquid culture and colonies grown on agar (solid medium) or directly from urine samples. Certain implementations of BLAST determine antibiotic susceptibility for a wide range of bacteria obtained from various types of patient samples, including samples from individuals suffering from urinary tract infections. The disclosed technology includes a high-throughput assay that directly detects bacterial susceptibility to a library of frequently used antibiotics and covers both Gram-negative and Gram-positive bacteria.
(§2) The test incorporates a non-canonical amino acid (ncAA) into newly produced proteins. The incorporated ncAA includes a reactive group which allows a specific modification and detection of the living bacteria. The assay involves bacterial incorporation of the ncAA, a chemical reaction between a reactive group and a fluorophore-tagged ligand, and detection of the newly fluorescent-tagged bacteria using a fluorescent plate reader or functionally similar device. The ncAA is added to bacterial growth media and is incorporated into newly synthesized bacterial proteins. The reactive groups on the ncAA are not naturally found in bacteria and act as a specific reactive group for bacteria undergoing active protein synthesis. […] The entire process is performed in a microtiter filter plate for high-throughput scale-up. Alternatively, a normal 96-well plate can also be used in which case centrifugation is used to wash the plate instead of filtration.
(§3) In an example embodiment, bacterial samples are first diluted and incubated in acclimatization media. After treatment with one or more antimicrobials, the ncAA is added and is taken up by living bacteria during protein biosynthesis in a process called labeling. […] The Click-Chemistry reaction between the alkyne group of the ncAA and the azide group of the fluorophore-tagged ligand requires the presence of copper in the reduced state-copper (I). In other implementations, the functional groups of the click chemistry reaction can be changed so that the ncAA has the azide group and the dye has the alkyne group. […] Other reducing agents may be used in the BLAST assay, for example, aldoses (sugars) including glyceraldehyde, glucose, and ribose to replace sodium ascorbate. Likewise, alternate chelators may be used (e.g., histidine in place of BTTAA). In some implementations, metal-free click chemistry reactions are performed without using copper.
(§4) Using the BLAST system, tests can be performed on isolates or direct urine samples. Isolates may be from urine, blood, or other body fluids. Isolated bacteria may be either Gram-positive or Gram-negative. In an example implementation, living bacterial samples in acclimatization media (Buffer A) are distributed in a microtiter filter plate, wherein certain predetermined wells include antibiotics of interest at different concentrations. These antibiotics are arrayed with increasing concentrations in adjacent wells so that the bacterial response can be measured against each specific concentration. The response is measured quantitatively, and a value that corresponds to the ability of the bacteria to metabolize and grow is measured.

S. aureus ATCC 29213 [3] = assay: CytoSPAR BLAST antibiotic susceptibility test; assay type: cell-based; conditions: for S, I, R: susceptible, intermediate, resistant category; for MIC: Staphylococcus aureus
Excerpt: as §1, §2, §3, §4

E. coli ATCC 25922 [4] = conditions: CLSI M100-Ed34E, cited from earlier work
E. coli LSI 770 [5] = assay: reference broth microdilution (rBMD); assay type: cell-based
Description: (§5) Following optimization of the BLAST assay, two other tests were performed in which 12 antibiotics (covering different classes) and 8 bacterial strains (Gram-positive and Gram-negative) were assayed using the same method as described above. Different bacterial strains were tested against different antibiotics and for each pair tested, the BLAST MIC value was compared to the CLSI QC range where available, or to the reference broth microdilution (rBMD) MIC which was determined in parallel with the BLAST assay following the CLSI protocols (see references [9]).
The inoculated urine cultures were incubated overnight at 35+2° C. Each urine culture was centrifuged, and the sediment used to prepare the BLAST inoculum of 5.0×10^5 CFU/mL to start the assay as described in the protocols section. […] The spiked urine samples were tested in parallel with isolates and the resultant BLAST MIC values were compared. In addition to the BLAST test, all the samples were also tested using the reference broth microdilution (rBMD) method and the MIC values were compared.

K. pneumoniae LSI 4552 [6] = assay: reference broth microdilution (rBMD); assay type: cell-based; conditions: Klebsiella pneumoniae, LSI4552
Description: as §5

P. mirabilis LSI 4933 [7] = assay: reference broth microdilution (rBMD); assay type: cell-based; conditions: Proteus mirabilis, LSI4933
Description: as §5

K. pneumoniae LSI CT1045 [8] = assay: reference broth microdilution (rBMD); assay type: cell-based; conditions: Klebsiella pneumoniae, LSICT1045
Description: as §5

P. mirabilis LSI 4698 [9] = assay: reference broth microdilution (rBMD); assay type: cell-based; conditions: Proteus mirabilis, LSI4698
Description: Different bacterial strains were tested against different antibiotics and for each pair tested, the BLAST MIC value was compared to the CLSI QC range where available, or to the reference broth microdilution (rBMD) MIC which was determined in parallel with the BLAST assay following the CLSI protocols (see references [8] [9]).

E. coli LSI 770 [10] = assay: CytoSPAR BLAST antibiotic susceptibility test; assay type: cell-based; conditions: E. coli LSI 770; for MIC: Escherichia coli, LSI770
Excerpt: as §1, §2, §3, §4

K. pneumoniae LSI 4552 [11] = assay: CytoSPAR BLAST antibiotic susceptibility test; assay type: cell-based
Excerpt: as §1, §2, §3, §4

P. mirabilis LSI 4698 [12] = assay: CytoSPAR BLAST antibiotic susceptibility test; assay type: cell-based
Excerpt: as §1, §2, §3, §4

P. mirabilis LSI 4933 [13] = assay: CytoSPAR BLAST antibiotic susceptibility test; assay type: cell-based
Excerpt: as §1, §2, §3, §4

K. pneumoniae LSI CT1045 [14] = assay: CytoSPAR BLAST antibiotic susceptibility test; assay type: cell-based; conditions: susceptible, intermediate, resistant category
Excerpt: as §1, §2, §3, §4

[15] = susceptible, intermediate, resistant category

For `CO/N=C(\C(=O)N[C@@H]1C(=O)N2C(C(=O)O)=C(COC(N)=O)CS[C@H]12)c1ccco1` [Cefuroxime, cefuroxime], the “MIC CLSI QC Range” value (S. aureus ATCC 29213 [1]) is listed as 0.5 to 2 µg/mL, the MIC (E. coli ATCC 25922 [2]; ATCC25922, Table 6, optimized BLAST, cutoff 0.8, read-out: MIC BLAST) is listed as 4 µg/mL (≈ 9.43 µM) and the “S, I, R” value (E. coli ATCC 25922 [2]) is listed as “Susceptible”. The “S, I, R” value (S. aureus ATCC 29213 [3]; S. aureus ATCC 29213) was “Susceptible” and the MIC (S. aureus ATCC 29213 [3]; ATCC29213, Table 6, S. aureus ATCC 29213, optimized BLAST, cutoff 0.8, read-out: MIC BLAST) was 0.25 µg/mL (≈ 0.589 µM).
For `CC1=C(C(=O)O)N2C(=O)[C@@H](NC(=O)[C@H](N)c3ccccc3)[C@H]2SC1` [Cephalexin, cephalexin], the “MIC CLSI QC Range” value (S. aureus ATCC 29213 [1]) is given as 0.25 to 1 µg/mL, the “MIC CLSI QC Range” value (E. coli ATCC 25922 [4]) is given as 1.0 to 4.0 µg/mL and the MIC (E. coli ATCC 25922 [2]; ATCC25922, read-out: MIC BLAST, Table 6, optimized BLAST, cutoff 0.8) is given as 16 µg/mL (≈ 46.1 µM). The “S, I, R” value (E. coli ATCC 25922 [2]) was “Susceptible”, the “S, I, R” value (S. aureus ATCC 29213 [3]; S. aureus ATCC 29213) was “Susceptible” and the MIC (S. aureus ATCC 29213 [3]; ATCC29213, read-out: MIC BLAST, Table 6, S. aureus ATCC 29213, optimized BLAST, cutoff 0.8) was 1 µg/mL (≈ 2.88 µM).
In the case of `C[C@H]1c2cccc(O)c2C(=O)C2=C(O)[C@]3(O)C(=O)C(C(N)=O)=C(O)[C@@H](N(C)C)[C@@H]3[C@@H](O)[C@@H]21` [Doxycycline, doxycycline], the MIC (E. coli LSI 770 [5]; Escherichia coli, LSI770) is reported as 64 µg/mL (≈ 144 µM), the “MIC rBMD” value (E. coli LSI 770 [5]; Table 8, E. coli LSI 770, geometric mean MIC rounded to nearest 2-fold dilution, n = 3) is reported as 64 µg/mL (≈ 144 µM) and the MIC (K. pneumoniae LSI 4552 [6]) is reported as 2 µg/mL (≈ 4.5 µM). For the same molecule, the MIC (P. mirabilis LSI 4933 [7]) was 4 µg/mL (≈ 9 µM), the MIC (K. pneumoniae LSI CT1045 [8]) was 8 µg/mL (≈ 18 µM) and the MIC (P. mirabilis LSI 4698 [9]) was 32 µg/mL (≈ 72 µM). The “MIC CLSI QC Range” value (E. coli ATCC 25922 [4]; listed as doxycycline) was 0.5 to 2 µg/mL, the “MIC CLSI QC Range” value (E. coli ATCC 25922 [4]) was 0.5 to 2.0 µg/mL and the “S, I, R” value (E. coli LSI 770 [10]; [15]) was “Resistant”. The MIC (E. coli LSI 770 [10]; Table 7, read-out: MIC BLAST) was 71 µg/mL (≈ 160 µM), the MIC (E. coli LSI 770 [10]; Table 8, isolates, 5 × 10^5 CFU/mL, read-out: MIC BLAST Isolates) was 71 µg/mL (≈ 160 µM) and the MIC (E. coli LSI 770 [10]; Table 8, spiked urine sample, 5 × 10^5 CFU/mL, read-out: MIC BLAST Spiked Urine) was 71 µg/mL (≈ 160 µM). For the same molecule, the MIC (K. pneumoniae LSI 4552 [11]; Klebsiella pneumoniae, LSI4552, Table 7) was 1 µg/mL (≈ 2.25 µM), the “S, I, R” value (K. pneumoniae LSI 4552 [11]; [15]) was “Susceptible” and the MIC (E. coli ATCC 25922 [2]; ATCC25922, Table 7, read-out: MIC BLAST) was 0.14 µg/mL (≈ 0.315 µM). The MIC (E. coli ATCC 25922 [2]; ATCC25922, Table 8, isolates, 5 × 10^5 CFU/mL, read-out: MIC BLAST Isolates) was 0.14 µg/mL (≈ 0.315 µM), the MIC (E. coli ATCC 25922 [2]; ATCC25922, Table 8, spiked urine sample, 5 × 10^5 CFU/mL, read-out: MIC BLAST Spiked Urine) was 0.28 µg/mL (≈ 0.63 µM) and the “S, I, R” value (E. coli ATCC 25922 [2]) was “Susceptible”. For the same molecule, the MIC (P. mirabilis LSI 4698 [12]; Proteus mirabilis, LSI4698, Table 7) was 4.4 µg/mL (≈ 9.9 µM), the “S, I, R” value (P. mirabilis LSI 4698 [12]; [15]) was “Susceptible” and the “S, I, R” value (S. aureus ATCC 29213 [3]; S. aureus ATCC 29213) was “Susceptible”. It also gave an MIC (S. aureus ATCC 29213 [3]; ATCC29213, S. aureus ATCC 29213, 5×10^6 CFUs/mL, cutoff 0.8, FIGS. 19-21, read-out: BLAST MIC) of under 0.0625 µg/mL, an MIC (S. aureus ATCC 29213 [3]; ATCC29213, Table 7, S. aureus ATCC 29213, read-out: MIC BLAST) of 0.02 µg/mL (≈ 0.045 µM) and an MIC (S. aureus ATCC 29213 [3]; ATCC29213, Table 8, S. aureus ATCC 29213, isolates, 5 × 10^5 CFU/mL, read-out: MIC BLAST Isolates) of 0.02 µg/mL (≈ 0.045 µM). For the same molecule, the MIC (S. aureus ATCC 29213 [3]; ATCC29213, Table 8, S. aureus ATCC 29213, spiked urine sample, 5 × 10^5 CFU/mL, read-out: MIC BLAST Spiked Urine) was 0.02 µg/mL (≈ 0.045 µM), the MIC (P. mirabilis LSI 4933 [13]; Proteus mirabilis, LSI4933, Table 7) was 1.1 µg/mL (≈ 2.48 µM) and the “S, I, R” value (P. mirabilis LSI 4933 [13]; [15]) was “Susceptible”. For the same molecule, the “S, I, R” value (K. pneumoniae LSI CT1045 [14]) was “Resistant”.
With `C[C@@H](O)[C@H]1C(=O)N2C(C(=O)O)=C(S[C@@H]3CN[C@H](C(=O)N(C)C)C3)[C@H](C)[C@H]12` [Meropenem, meropenem] the “S, I, R” value (E. coli ATCC 25922 [2]) was “Susceptible” and the “S, I, R” value (S. aureus ATCC 29213 [3]; S. aureus ATCC 29213) was “Susceptible”.
